{
  "source": "patent US9770195B2",
  "about": "“Automated scratch detection system and signal processing algorithm for the study of pruritus in animals” (The Regents of the University of California, priority 2012, dated 2017)",
  "key": {"C57Bl/6 mice [1]": {"tested_on": "C57Bl/6 mice", "assay": "Pruritogen-evoked hind paw scratching counted by the paw motion detector (PMD) in mice", "type": "in vivo", "details": "mouse; for scratching behavior evoked by the pruritogen: injection to dorsolateral neck, ipsilateral paw, 60 min; for dose response of scratching: histamine 0.111-11.1 g/mL, chloroquine 0.1-2 mg/mL, 48/80 0.125-0.5 mg/mL", "text": "Data acquisition is then initiated. […] The PMD detects the movement of a non-ferrous metal band placed around one hind paw of the rodent (for the mouse the band weight=0.1 g while for the rat the band weight=0.5 g). There are two distinct bands one for the rat and one for the mouse (see the band in Yaksh et al., 2001). The testing apparatus consists of cylindrical chambers (mouse: 8.5 cm diameter/22.5 cm tall; rat: 15 cm diameter/30 cm tall). Under each cylinder is a pair of circular concentric electromagnetic coils, which serve respectively as antennas for transmission and reception. […] The transmitter coil assembly is constructed to emit a 5-8 mW, 6-8 kHz, sinusoidal electromagnetic field (Blue Max 800 Precision scan search coil White's Electronics, Inc., OR). The detection principal is that Eddy currents created by the movements of the ferrous and nonferrous metals perturb the EM field. Such perturbations produce an output waveform and are subsequently detected (Yaksh et al., 2001). The analog signal from the sensing coil assembly is fed into a standard National Instruments based signal acquisition A-D converter system ([…] or PCI-MI0-16Xe-10 National Instruments Corp.) driven into a standard LabView based software (Lab view v.5.1 National Instruments Corporation, Austin, Tex.). The signal is filtered, amplified, and digitized (sampling rate of 1000 Hz, 12-bit resolution). This signal (conditioned signal in FIG. 2) is then entered and passed through a two component-triggering algorithm configured in the Lab view program. In the first phase, the processed signal is sent through an algorithm to establish a scratch movement trigger. In this phase, the processed signal is subjected to a “zero-crossing interval-peak height” analysis based on the signal amplitude in a sliding time window (see Yaksh et al., 2001). The range of voltages (1-0.01 V) over a moving 128-ms interval is configured to produce a continuous output waveform. […] The signal is then smoothed by using a non-weighted moving average filter. The smoothed range waveform is examined in real time by a peak-detection algorithm set to pick out spikes of >500 ms and amplitudes of >0.3 V. Each peak provided a trigger signal, which is represented by a red line on the automated system's display, see FIG. 3. The signal is then processed through a second level algorithm to define bursting. A high frequency scratching burst, which we will now call a microburst, is defined as multiple trigger signals occurring within a specified moving window time frame (e.g. 2 trigger signals within a 1.15 s time frame) without double counting trigger signals. […] Paw movement events meeting the criteria of a scratch microburst are captured and summed at 1-min increments by default (and can be summed from 1 s to 60 min increments). Summed data are stored in Microsoft Excel compatible spreadsheets."}, "C57Bl/6 mice [2]": {"tested_on": "C57Bl/6 mice", "details": "mouse; for effect on chloroquine (1 mg/mL) evoked scratching: diphenhydramine 1 mg/kg IP"}, "Holtzman rats": {"tested_on": "Holtzman rats", "assay": "SQ 48/80-evoked homolateral scratching in the rat (PMD, Example 2)", "type": "in vivo", "details": "diphenhydramine 1 mg/kg IP with SQ 48/80", "text": "Data acquisition is then initiated.\nThe PMD detects the movement of a non-ferrous metal band placed around one hind paw of the rodent (for the mouse the band weight=0.1 g while for the rat the band weight=0.5 g). There are two distinct bands one for the rat and one for the mouse (see the band in Yaksh et al., 2001). The testing apparatus consists of cylindrical chambers (mouse: 8.5 cm diameter/22.5 cm tall; rat: 15 cm diameter/30 cm tall). Under each cylinder is a pair of circular concentric electromagnetic coils, which serve respectively as antennas for transmission and reception. Outer coil diameters for the mouse and rat are 12 cm and 20 cm, respectively. The transmitter coil assembly is constructed to emit a 5-8 mW, 6-8 kHz, sinusoidal electromagnetic field (Blue Max 800 Precision scan search coil White's Electronics, Inc., OR). The detection principal is that Eddy currents created by the movements of the ferrous and nonferrous metals perturb the EM field. Such perturbations produce an output waveform and are subsequently detected (Yaksh et al., 2001)."}},
  "note": "“Also recorded” adds a separate entry of the source. Read-outs that look alike come from different tables or passages of the source.",
  "data": [
    {"smiles": "CCN(CC)CCCC(C)Nc1ccnc2cc(Cl)ccc12", "note": "(stereo not drawn) [chloroquine]", "values": [
      {"measurement": "cumulative macroburst counts, 48/80 vs chloroquine", "setting": "C57Bl/6 mice [1]; 1 hour, SQ 48/80 0.5 mg/mL vs chloroquine 1 mg/mL, N=5, p<0.001", "value": "significantly different"},
      {"measurement": "scratching behavior evoked by the pruritogen", "setting": "C57Bl/6 mice [1]", "value": "vigorous scratching; also recorded: significant scratching incidence"},
      {"measurement": "average macrobursts", "setting": "C57Bl/6 mice [1]; over 1 hour after SQ 48/80 0.5 mg/mL or chloroquine 1 mg/mL, N=5, FFT transformed", "value": 8.4},
      {"measurement": "dose response of scratching", "setting": "C57Bl/6 mice [1]", "value": "inverse u shape dose response curve"},
      {"measurement": "dose response of scratching", "setting": "C57Bl/6 mice [1]; listed as Chloroquine", "value": "inverse U shaped dose response curve; also recorded: inverse u-shaped dose response curve"}
    ]},
    {"smiles": "CN(C)CCOC(c1ccccc1)c1ccccc1", "note": "[diphenhydramine, Diphenhydramine]", "values": [
      {"measurement": "effect on scratching produced by 48/80", "setting": "C57Bl/6 mice [2]; diphenhydramine 0.1 mg/kg IP, 30 min pretreatment, SQ 48/80 0.5 mg/mL", "value": "complete reversal of scratching"},
      {"measurement": "effect on chloroquine (1 mg/mL) evoked scratching", "setting": "C57Bl/6 mice [2]; 30 min pretreatment", "value": "lower mean microburst count than those treated with chloroquine alone, but this was not statistically significant"},
      {"measurement": "effect on chloroquine (1 mg/mL) evoked scratching", "setting": "C57Bl/6 mice [2]; 30 min pretreatment, listed as Diphenhydramine", "value": "no statistically significant effect"},
      {"measurement": "effect on SQ histamine-evoked scratching", "setting": "C57Bl/6 mice [2]; diphenhydramine, dose not stated", "value": "reversed"},
      {"measurement": "effect on scratching produced by 48/80", "setting": "C57Bl/6 mice [2]; higher doses of diphenhydramine (0.3, 1 mg/kg IP)", "value": "suppression of behavior as compared to saline treated animals"},
      {"measurement": "effect on 48/80-evoked scratching, across doses", "setting": "C57Bl/6 mice [2]; increasing doses of IP diphenhydramine", "value": "attenuated in an equally dose dependent fashion; also recorded: reversed"},
      {"measurement": "effect on 48/80-evoked scratching", "setting": "Holtzman rats", "value": "significant reduction in the observed magnitude of scratching"}
    ]},
    {"smiles": "Cl.Cl.NCCc1c[nH]cn1", "note": "[histamine, Histamine dihydrochloride]", "values": [
      {"measurement": "scratching behavior evoked by the pruritogen", "setting": "C57Bl/6 mice [1]", "value": "vigorous scratching"},
      {"measurement": "dose response of scratching", "setting": "C57Bl/6 mice [1]; dihydrochloride", "value": "robust dose dependent scratching"}
    ]},
    {"smiles": "CCN(CC)CC(=O)Nc1c(C)cccc1C", "note": "[lidocaine]", "values": [
      {"measurement": "effect on histamine-evoked scratching", "setting": "C57Bl/6 mice [2]; SQ lidocaine 2.5% injected into the site 5 min prior to histamine", "value": "blocked the scratching behavior"}
    ]}
  ]
}
